Legend:
[1] = system: PMA-stimulated P90RSK(Ser380) phosphorylation in HepG2 cells; experiment: Cellular P90RSK(Ser380) Phosphorylation Assay; assay type: cell-based; settings: Homo sapiens, 1.5 h compound incubation, PMA stimulation, pP90RSK(Ser380) normalized to GAPDH, read-out: Cell Assay IC50
Outline: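 HepG2 cells were pretreated with compound (0.5% DMSO final) for 1.5 h, then stimulated with PMA 100 ng/mL for 30 min at 37° C. Fixed, permeabilized cells were immunostained for pP90RSK(Ser380) and GAPDH. The two-channel infrared fluorescence was read, and the phospho signal was normalized to GAPDH.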

HCT116 cells = experiment: Cell Proliferation/Viability Assay (Cell Titer-Blue, 72 h); assay type: cell-based; settings: Homo sapiens, HCT-116, 3-day (72-hour) incubation
Method: The cytotoxic or cytostatic activity of formula I exemplary compounds was measured by: establishing a proliferating mammalian tumor cell line in a cell culture medium, adding a formula I compound, culturing the cells for a period from about 6 h to about 5 d; and measuring cell viability (Example 78). Cell-based in vitro assays were used to measure viability, i.e. proliferation (IC50), cytotoxicity (EC50).
Viable cells after a 3-day (72-hour) incubation with ERK compounds were quantified using the Cell Titer-Blue Cell Viability Assay from Promega.
Materials and Methods: HCT116 cells were plated in 96 well micro-plates at a density of 1,000 cells/well. The cells were allowed to attach to micro-plate overnight at 37° C./5% CO2. After overnight attachment, diluted compounds were then added to the cells at a final concentration of 0.5% DMSO. After 3 days (72 hours) at 37° C./5% CO2, the number of viable cells was determined using the Cell Titer-Blue Cell Viability Assay from Promega. Briefly, Cell Titer-Blue reagent were added to the cells and incubated for 1 hour. Fluorescense (560 nmexcitation/590 nmemission) was then read using a fluorescence micro-plate reader. Background from high concentration ERK-inhibited wells was subtracted. Representative date is in TABLE III (infra).

[2] = molecular target: human ERK-2 (Mitogen Activated Kinase 1) (Homo sapiens (Human), UniProt P28482); experiment: ERK-2 Enzymatic Assay; assay type: biochemical; settings: 5 nM ERK-2, 25 μM ATP, Omnia peptide S/T17; read-out: ERK Inhibition IC50
Sequence of human ERK-2 (Mitogen Activated Kinase 1) (P28482 8-360): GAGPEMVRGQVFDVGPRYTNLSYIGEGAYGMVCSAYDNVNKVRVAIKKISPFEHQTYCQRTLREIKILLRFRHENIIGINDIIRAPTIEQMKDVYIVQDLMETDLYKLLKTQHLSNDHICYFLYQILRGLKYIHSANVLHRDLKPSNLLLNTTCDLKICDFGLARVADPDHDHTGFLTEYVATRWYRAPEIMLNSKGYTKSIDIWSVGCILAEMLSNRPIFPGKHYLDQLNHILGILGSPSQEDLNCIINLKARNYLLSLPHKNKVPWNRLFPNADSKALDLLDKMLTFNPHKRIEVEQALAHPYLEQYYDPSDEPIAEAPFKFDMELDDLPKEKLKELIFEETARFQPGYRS
Outline: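 Recombinant N-terminal 6-His human ERK-2 (aa 8-360, E. coli) with fluorescent Omnia peptide S/T17 substrate, ambient temperature, read kinetically every 50 s for ~30 min (Ex 340/Em 495 nm). Linear rates converted to percent of control; IC50 from four-parameter fit.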

Row | SMILES | IC50 (HCT116 cells) [nM] | IC50 [2] [nM] | IC50 [1] [nM]
1 | CC(C)Nc1ncc2c(n1)CN(C(=O)N[C@H](CCO)c1ccc(C(F)(F)F)c(F)c1)CC2 [II-72, 2-Isopropylamino-5,8-dihydro-6H-pyrido[3,4-d]pyrimidine-7-carboxylic acid [(R)-1-(3-fluoro-4-trifluoromethyl-phenyl)-3-hydroxy-propyl]-amide] |  | 7.2 | 208
2 | COCCOC[C@@H](NC(=O)N1CCc2cnc(N[C@@H](C)CO)nc2C1)c1ccc(F)c(Cl)c1 [II-78, 2-((S)-2-Hydroxy-1-methyl-ethylamino)-5,8-dihydro-6H-pyrido[3,4-d]pyrimidine-7-carboxylic acid [(S)-1-(3-chloro-4-fluoro-phenyl)-2-(2-methoxy-ethoxy)-ethyl]-amide] |  | 17.7 | 1400
3 | C[C@@H](NC(=O)N1CCc2cnc(N[C@H](CO)Cc3ccccc3)nc2C1)c1ccc(Cl)c(Cl)c1 [II-111, 2-((S)-1-Hydroxymethyl-2-phenyl-ethylamino)-5,8-dihydro-6H-pyrido[3,4-d]pyrimidine-7-carboxylic acid [(R)-1-(3,4-dichloro-phenyl)-ethyl]-amide] |  | 4.7 | 693
4 | Cc1nccc(Nc2ncc3c(n2)CN(C(=O)N[C@H](C)c2ccc(Cl)c(Cl)c2)CC3)n1 [II-126, 2-(2-Methyl-pyrimidin-4-ylamino)-5,8-dihydro-6H-pyrido[3,4-d]pyrimidine-7-carboxylic acid [(R)-1-(3,4-dichloro-phenyl)-ethyl]-amide] |  | 6.9 | 141
5 | C[C@@H](CO)Nc1ncc2c(n1)CN(C(=O)NCc1nc3ccccc3o1)CC2 [II-151, 2-((S)-2-Hydroxy-1-methyl-ethylamino)-5,8-dihydro-6H-pyrido[3,4-d]pyrimidine-7-carboxylic acid (benzooxazol-2-ylmethyl)-amide] |  | 52.8 | 10000
6 | CC(C)Nc1ncc2c(n1)CN(C(=O)NCc1cc3ccccc3[nH]1)CC2 [II-195, 2-Isopropylamino-5,8-dihydro-6H-pyrido[3,4-d]pyrimidine-7-carboxylic acid (1H-indol-2-ylmethyl)-amide] |  | 6.6 | 281
7 | C[C@@H](CO)Nc1ncc2c(n1)CN(C(=O)NCc1cccc3cc[nH]c13)CC2 [II-200, 2-((S)-2-Hydroxy-1-methyl-ethylamino)-5,8-dihydro-6H-pyrido[3,4-d]pyrimidine-7-carboxylic acid (1H-indol-7-ylmethyl)-amide] |  | 411 | 1000
8 | O=C(NCc1ccc2cc[nH]c2c1)N1CCc2cnc(NC3CCOCC3)nc2C1 [II-223, 2-(Tetrahydro-pyran-4-ylamino)-5,8-dihydro-6H-pyrido[3,4-d]pyrimidine-7-carboxylic acid (1H-indol-6-ylmethyl)-amide] |  | 5.7 | 186
9 | C[C@@H](NC(=O)N1CCc2cnc(NC3CC(=O)N(C)C3)nc2C1)c1ccc(Cl)c(F)c1 (stereo partly shown) [II-267, 2-(1-Methyl-5-oxo-pyrrolidin-3-ylamino)-5,8-dihydro-6H-pyrido[3,4-d]pyrimidine-7-carboxylic acid [1-(4-chloro-3-fluoro-phenyl)-ethyl]-amide] |  | 20.1 | 28000
10 | O=C(N1CCc2cnc(NC3CCOCC3)nc2C1)N1CCCC1c1ccccn1 (stereo not shown) [II-288, (2-Pyridin-2-yl-pyrrolidin-1-yl)-[2-(tetrahydro-pyran-4-ylamino)-5,8-dihydro-6H-pyrido[3,4-d]pyrimidin-7-yl]-methanone] |  | 62.7 | 9500
11 | N#CCN1C[C@@H](NC(=O)N2CCc3cnc(NC4CCOCC4)nc3C2)[C@H](c2ccc(F)c(F)c2)C1 [II-341, 2-(Tetrahydro-pyran-4-ylamino)-5,8-dihydro-6H-pyrido[3,4-d]pyrimidine-7-carboxylic acid [(3S,4R)-1-cyanomethyl-4-(3,4-difluoro-phenyl)-pyrrolidin-3-yl]-amide] |  | 4 | 371
12 | C[C@@H](NC(=O)N1CCc2cnc(NC3CC(F)(F)C3)nc2C1)c1ccc(Cl)c(Cl)c1 [II-355, 2-(3,3-Difluoro-cyclobutylamino)-5,8-dihydro-6H-pyrido[3,4-d]pyrimidine-7-carboxylic acid [(R)-1-(3,4-dichloro-phenyl)-ethyl]-amide] |  | 7.5 | 970
13 | C[C@@H](NC(=O)N1CCc2cnc(N[C@H]3C[C@@H](O)C3)nc2C1)c1ccc(Cl)c(Cl)c1 [II-371, 2-((1S,3S)-3-Hydroxy-cyclobutylamino)-5,8-dihydro-6H-pyrido[3,4-d]pyrimidine-7-carboxylic acid [(R)-1-(3,4-dichloro-phenyl)-ethyl]amide] |  | 3.15 | 90

The next compounds have a lower IC50 [2] than those just listed; values first:

Row | IC50 (HCT116 cells) [nM] | IC50 [2] [nM] | SMILES | IC50 [1] [nM]
14 | 301 | 1.1 | O=C(N[C@@H](c1ccc(Cl)c(Cl)c1)c1cnco1)N1CCc2cnc(NC3CCOCC3)nc2C1 [Compound I-1, (S)—N-((3,4-dichlorophenyl)(oxazol-5-yl)methyl)-2-(tetrahydro-2H-pyran-4-ylamino)-5,6-dihydropyrido[3,4-d]pyrimidine-7(8H)-carboxamide] | 4.55
15 | 625 | 1.1 | CC(C)Nc1ncc2c(n1)CN(C(=O)N[C@@H](c1ccc(C(F)(F)F)c(F)c1)[C@H]1CCCN1)CC2 [Compound I-15, N—((S)-(3-fluoro-4-(trifluoromethyl)phenyl)((R)-pyrrolidin-2-yl)methyl)-2-(isopropylamino)-5,6-dihydropyrido[3,4-d]pyrimidine-7(8H)-carboxamide] | 37.3
16 | 2100 | 1.1 | CC(C)Nc1ncc2c(n1)CN(C(=O)N[C@H](CO)c1ccc(Cl)c(Cl)c1)CC2 [Compound I-16, (S)—N-(1-(3,4-dichlorophenyl)-2-hydroxyethyl)-2-(isopropylamino)-5,6-dihydropyrido[3,4-d]pyrimidine-7(8H)-carboxamide] | 52.4
17 | 628 | 1.5 | CC[C@@H](NC(=O)N1CCc2cnc(NC3CCOCC3)nc2C1)c1ccc(OC(F)F)cc1 [Compound I-27, (R)—N-(1-(4-(difluoromethoxy)phenyl)propyl)-2-(tetrahydro-2H-pyran-4-ylamino)-5,6-dihydropyrido[3,4-d]pyrimidine-7(8H)-carboxamide] | 26.9
18 | 1900 | 1.6 | COCC[C@@H](NC(=O)N1CCc2cnc(NC3CCOCC3)nc2C1)c1ccc(Cl)c(Cl)c1 [Compound I-28, (R)—N-(1-(3,4-dichlorophenyl)-3-methoxypropyl)-2-(tetrahydro-2H-pyran-4-ylamino)-5,6-dihydropyrido[3,4-d]pyrimidine-7(8H)-carboxamide] | 32.8
19 | 1900 | 1.1 | C[C@@H](CO)Nc1ncc2c(n1)CN(C(=O)N[C@H](CCO)c1ccc(Cl)c(Cl)c1)CC2 [Compound I-33, N—((R)-1-(3,4-dichlorophenyl)-3-hydroxypropyl)-2-((S)-1-hydroxypropan-2-ylamino)-5,6-dihydropyrido[3,4-d]pyrimidine-7(8H)-carboxamide] | 55
20 |  | 2.33 | C[C@@H](NC(=O)N1CCc2cnc(N[C@H]3CCC(F)(F)C3)nc2C1)c1ccc(Cl)c(Cl)c1 [II-116, 2-((S)-3,3-Difluoro-cyclopentylamino)-5,8-dihydro-6H-pyrido[3,4-d]pyrimidine-7-carboxylic acid [(R)-1-(3,4-dichloro-phenyl)-ethyl]-amide] | 130
21 |  | 2.2 | C[C@H](Cc1ccc(Cl)cc1)NC(=O)N1CCc2cnc(N[C@@H](C)CO)nc2C1 [II-136, 2-(2-Hydroxy-1-methyl-ethylamino)-5,8-dihydro-6H-pyrido[3,4-d]pyrimidine-7-carboxylic acid [2-(4-chloro-phenyl)-1-methyl-ethyl]-amide] | 464
22 |  | 3.03 | COCC[C@@H](CO)Nc1ncc2c(n1)CN(C(=O)N[C@H](C)c1ccc(Cl)c(Cl)c1)CC2 [II-399, 2-((S)-1-Hydroxymethyl-3-methoxy-propylamino)-5,8-dihydro-6H-pyrido[3,4-d]pyrimidine-7-carboxylic acid [(R)-1-(3,4-dichloro-phenyl)-ethyl]-amide] | 287
23 |  | 2.3 | CCCC(NC(=O)N1CCc2cnc(N[C@@H](C)CO)nc2C1)c1ccc(OC)c(F)c1 (stereo partly shown) [II-415, 2-(2-Hydroxy-1-methyl-ethylamino)-5,8-dihydro-6H-pyrido[3,4-d]pyrimidine-7-carboxylic acid [1-(3-fluoro-4-methoxy-phenyl)-butyl]-amide] | 39.5

Reference: US9133187B2, “Serine/threonine kinase inhibitors” (ARRAY BIOPHARMA INC., priority 2011, dated 2015)
